Measurements as given in US20200206198A1, “CFTR CHANNEL ACTIVATOR FOR USE IN THE TREATMENT AND/OR PREVENTION OF GLUTEN SENSITIVITY CONDITIONS” (priority 2017, published 2020).

How the values were obtained:
PM-associated CFTR = target: T1, PM-associated CFTR (Homo sapiens, UniProt P13569); experiment: CFTR plasma membrane disposal in Caco-2 cells (membrane fractions); type: cell-based
T1 construct: Immunoprecipitations of endogenous proteins were performed on 500 μg of lysates from Caco-2 cells; host or cells: Caco-2, T84
Description: (§1) Human colon adenocarcinoma-derived Caco-2 and T84 cells were obtained from the ATCC. Cells were maintained in T25 flask in Modified Eagle Medium (MEM) for Caco-2, or Ham's F12+DMEM (1:1) for T84, supplemented with 10% fetal bovine serum (FBS), 2 mM Glutamine+1% Non Essential Amino Acids (NEAA) and the antibiotics penicillin\streptomycin (100 units/ml) (all reagents from Lonza) (Luciani, A., et al. 2010. Cells were grown in Transwells (Corning, 3470 or 3460) under the normal condition (Luciani, A., et al. 2012). Briefly, 8×10^4 or 5×10^5 cells were seeded in 6.5-mm diameter or 12-mm diameter, respectively, and grown until the RT reached 800 to 1,200 Ω·cm2. Transwells with a pore size of 0.4 μm were used. Medium in both the apical and basolateral chambers was changed every other day. Cells were treated with 20 μg/ml of either α-gliadin peptide P31-43 or […] or scrambled PGAV or modified P31-43 either biotin-tagged or not, for different time point (from 1 h short challenge up to 24 h). Cells were also treated with 50 or 100 μg/ml of P57-68 or PGAV peptides for 3 h. Caco-2 or T84 cells were also treated with: CFTR potentiators VX-770 (10 μM) or VX-532 (20 μM) (Selleck chemicals) or Genistein (10 μM) (Sigma-Aldrich) or in presence or absence of CFTR inhibitor172 (CFTRinh172, 20 μM) or 3-methyl-adenine (3-MA, 20 μM) (Calbiochem), Z-DON (20 nM, Zedira) or BAPTA-AM (10 μM, Calbiochem).
(§2) The whole lysate or membrane fraction proteins of cell lines and mice intestine homogenates were obtained from treated and untreated cells or mice as described. The equal amount of protein were resolved by SDS-PAGE gel and blotted with antibodies against: SQSTM1, (Sigma Aldrich, 108k4767) 1:1000, PPARγ (Santa Cruz Biotechnology, sc7273) 1:500, BECN1 (Abcam, ab58878) 1:1000, CFTR clone M3A7 (Abcam, ab4067) 1:500, phospho-ERK1/2 (php42/44, Cell Signaling Technology, #91101) 1:1000, UVRAG (Santa Cruz Biotechnology sc8215) 1:1000, NHERF-1 (BD, 611161) 1:1000, EZRIN (BD, 610603) 1:1000, hVps34 (SigmaV9764) 1:300, biotin (Abcam, ab1227) 1:2000, PKAr2a (BD, 610625) 1:500, Ubiquitin (Cell Signaling clone P4D1, #3936) 1:1000, CHIP (Calbiochem PC711) 1:500, Caspase-1 p10 (M-20) (Santa Cruz Biotechnology, sc-514) 1:200, NLRP3 (Abcam, ab4207), 1:500, IDO1 (monoclonal; cv152) 1:1000^[80], used as primary antibodies. Normalization was performed by probing the membrane with anti-β-actin (Cell Signaling, #4970) 1:1000, anti-Gapdh (Sigma-Aldrich, G8795) 1:1000 and anti-flottilin (Abcam ab15148) 1:1000 antibodies. Immunoprecipitations of endogenous proteins were performed on 500 μg of lysates from Caco-2 cells. The proteins were incubated for 12-18 h at 4° C. with 10 ug\ml of specific antibody followed by the addition of Protein A/G-agarose beads for 4 h at 4° C. The beads were then washed three times with lysis buffer and Laemmli's sample buffer was added to the samples. The membranes were then blotted with: CFTR clone CF3 (Abcam, ab2784) 1:1000, TG2 (clone CUB7402; NeoMarkers) 1:1000, CHIP (Calbiochem PC711) 1:500, Ubiquitin (Cell Signaling clone P4D1 3936), isopeptide (Abcam 422) 1:1000, PKAR2 (BD 610625) 1:500.
Protein from membrane fractionation were obtained as described. Cells were homogenized with a PotterElvehjem pestle and centrifuged at 2300×g for 15 min at 4° C. […]

Caco-2 cells = experiment: Endosomal trafficking proteins in Caco-2 cells (immunoblot, endosomal fractions); type: cell-based, human
Description: as §1
as §2, with “The beads were then washed three times with lysis buffer and Laemmli's sample buffer was added to the samples. The membranes were then blotted with: CFTR clone CF3 (Abcam, ab2784) 1:1000, TG2 (clone CUB7402; NeoMarkers) 1:1000, CHIP (Calbiochem PC711) 1:500, Ubiquitin (Cell Signaling clone P4D1 3936), isopeptide (Abcam 422) 1:1000, PKAR2 (BD 610625) 1:500.” left out

T1 sequence (P13569 whole entry): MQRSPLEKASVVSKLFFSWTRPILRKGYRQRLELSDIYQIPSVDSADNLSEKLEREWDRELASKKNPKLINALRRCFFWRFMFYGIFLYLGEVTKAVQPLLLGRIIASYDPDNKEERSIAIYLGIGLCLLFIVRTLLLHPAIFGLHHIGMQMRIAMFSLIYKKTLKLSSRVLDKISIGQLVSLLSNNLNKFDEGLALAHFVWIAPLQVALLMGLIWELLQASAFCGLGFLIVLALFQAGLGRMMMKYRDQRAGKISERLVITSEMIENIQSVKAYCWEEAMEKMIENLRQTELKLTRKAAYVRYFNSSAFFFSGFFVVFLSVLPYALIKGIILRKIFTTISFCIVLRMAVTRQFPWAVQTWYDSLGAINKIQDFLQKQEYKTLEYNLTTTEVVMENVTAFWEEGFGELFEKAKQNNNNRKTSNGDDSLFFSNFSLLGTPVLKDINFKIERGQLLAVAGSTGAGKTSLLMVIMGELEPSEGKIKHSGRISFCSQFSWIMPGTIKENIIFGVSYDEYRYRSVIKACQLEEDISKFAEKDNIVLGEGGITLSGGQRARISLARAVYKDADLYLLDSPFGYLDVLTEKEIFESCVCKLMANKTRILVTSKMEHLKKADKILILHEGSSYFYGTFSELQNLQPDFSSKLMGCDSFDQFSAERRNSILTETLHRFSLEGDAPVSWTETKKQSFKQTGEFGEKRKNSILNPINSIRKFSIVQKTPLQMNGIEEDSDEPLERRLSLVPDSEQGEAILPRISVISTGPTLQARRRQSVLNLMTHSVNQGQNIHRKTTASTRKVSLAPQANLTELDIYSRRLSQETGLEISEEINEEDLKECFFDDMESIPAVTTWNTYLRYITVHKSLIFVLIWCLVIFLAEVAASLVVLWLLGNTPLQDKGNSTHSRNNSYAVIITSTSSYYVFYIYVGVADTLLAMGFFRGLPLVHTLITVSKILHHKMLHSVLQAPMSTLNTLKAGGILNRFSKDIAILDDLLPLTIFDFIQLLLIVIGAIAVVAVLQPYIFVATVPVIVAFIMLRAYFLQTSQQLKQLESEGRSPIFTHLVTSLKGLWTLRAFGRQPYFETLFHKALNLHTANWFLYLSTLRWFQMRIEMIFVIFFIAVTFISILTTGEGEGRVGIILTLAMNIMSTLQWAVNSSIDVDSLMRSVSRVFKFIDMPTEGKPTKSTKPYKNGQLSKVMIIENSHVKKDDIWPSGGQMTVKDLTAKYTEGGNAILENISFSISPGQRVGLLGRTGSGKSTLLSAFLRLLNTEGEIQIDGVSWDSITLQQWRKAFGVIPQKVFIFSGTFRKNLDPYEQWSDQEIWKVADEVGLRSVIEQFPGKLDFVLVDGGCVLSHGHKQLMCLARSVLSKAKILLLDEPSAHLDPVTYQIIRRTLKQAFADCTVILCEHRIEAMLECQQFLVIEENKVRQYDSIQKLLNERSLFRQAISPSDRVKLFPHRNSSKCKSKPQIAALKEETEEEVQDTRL

Row | Compound | CHIP-mediated CFTR ubiquitilation (PM-associated CFTR) | abundance of plasma membrane-associated SQSTM1/p62 (PM-associated CFTR) | overall abundance of PM-associated CFTR (PM-associated CFTR; after 24 h of challenge) | Rab5 and Rab7 levels in endosomal protein fractions (Caco-2 cells) | total cellular abundance of BECN1, hVps34 and UVRAG (Caco-2 cells) | effect on P31-43-induced reduction of PM-associated CFTR (PM-associated CFTR) | effect on P31-43-induced reduction of BECN1, hVps34, UVRAG, Rab5 and Rab7 (Caco-2 cells; lost if 3-MA or CFTR inhibitor added)
1 | α-gliadin peptide LGQQQPFPPQQPY (SEQ ID 1), induces an enterocyte stress response (P31-43 sequence of alpha-gliadin) | promoted | increased the abundance | reduction of the overall abundance of PM-associated CFTR | decreased | reduced the total cellular abundance | – | –
2 | CC(C)(C)c1cc(C(C)(C)C)c(NC(=O)c2c[nH]c3ccccc3c2=O)cc1O [VX-770, N-(2,4-di-tert-butyl-5-hydroxyphenyl)-4-oxo-1,4-dihydroquinoline-3-carboxamide] | – | – | – | – | – | counteracted | counteracted
